Experimental data taken from patent publication US11986471B2, “Compounds and methods of use” (Tango Therapeutics, Inc., priority 2018, dated 2024).

Assays:
[1] = biological target: T1, PRMT5 (Homo sapiens, UniProt O14744); assay: PRMT5 IC50 assay in the presence of MTA as cofactor; type: biochemical; details: for IC50: PRMT5, MTA as cofactor
T1 construct: purchased Viva (custom protein)
Outline: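 Each compound is tested on PRMT5 in the presence of SAM, of MTA, and without any cofactor. Ki values are then back-calculated using fixed factors of 1.5 (SAM) and 13.5 (MTA), and the two Ki values are compared as a ratio.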

[2] = biological target: T1, PRMT5; assay: PRMT5 IC50 assay in the presence of SAM as cofactor; type: biochemical
Outline: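 IC50 values were measured against human PRMT5 with SAM, with MTA, or with no cofactor. Ki was derived from IC50 as Ki=IC50/1.5 with SAM and Ki=IC50/13.5 with MTA, and the Ki(SAM)/Ki(MTA) ratio was then taken.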

[3] = test system: HAP1 MTAP-intact; assay: SDMA in-cell western assay, HAP1 MTAP-intact cell line; type: cell-based; details: Homo sapiens
Outline: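 Symmetric dimethylarginine (SDMA) levels were measured by in-cell western in an isogenic HAP1 pair, one expressing endogenous MTAP and one MTAP-null, and IC50 values were derived for each line. Compounds whose IC50 ratio between the lines is 3-fold or more are classed as MTAP-selective.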

[4] = test system: HAP1 MTAP-deleted; assay: SDMA in-cell western assay, HAP1 MTAP-deleted cell line; type: cell-based; details: for IC50: Homo sapiens, HAP1 MTAP-deleted cell line; for MTAP Intact/Deleted Ratio: IC50 ratio HAP1 MTAP-intact / HAP1 MTAP-deleted
Outline: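 Symmetric dimethylarginine (SDMA) levels were measured by in-cell western in MTAP-null HAP1 cells, one half of an MTAP-isogenic pair whose partner line expresses endogenous MTAP. Compound potency is reported as IC50.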

[5] = biological target: T1, PRMT5; assay: PRMT5 IC50 assay with no cofactor; type: biochemical
Outline: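 IC50 against PRMT5 determined with SAM as cofactor, with no cofactor, and with MTA as cofactor. Ki derived as IC50/1.5 for the SAM assay and IC50/13.5 for the MTA assay; SAM Ki to MTA Ki ratio also reported.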

[6] = ratio between Ki in the presence of SAM and Ki in the presence of MTA
[7] = ratio between the Ki in the presence of SAM and the Ki in the presence of MTA

T1 sequence (O14744 whole entry): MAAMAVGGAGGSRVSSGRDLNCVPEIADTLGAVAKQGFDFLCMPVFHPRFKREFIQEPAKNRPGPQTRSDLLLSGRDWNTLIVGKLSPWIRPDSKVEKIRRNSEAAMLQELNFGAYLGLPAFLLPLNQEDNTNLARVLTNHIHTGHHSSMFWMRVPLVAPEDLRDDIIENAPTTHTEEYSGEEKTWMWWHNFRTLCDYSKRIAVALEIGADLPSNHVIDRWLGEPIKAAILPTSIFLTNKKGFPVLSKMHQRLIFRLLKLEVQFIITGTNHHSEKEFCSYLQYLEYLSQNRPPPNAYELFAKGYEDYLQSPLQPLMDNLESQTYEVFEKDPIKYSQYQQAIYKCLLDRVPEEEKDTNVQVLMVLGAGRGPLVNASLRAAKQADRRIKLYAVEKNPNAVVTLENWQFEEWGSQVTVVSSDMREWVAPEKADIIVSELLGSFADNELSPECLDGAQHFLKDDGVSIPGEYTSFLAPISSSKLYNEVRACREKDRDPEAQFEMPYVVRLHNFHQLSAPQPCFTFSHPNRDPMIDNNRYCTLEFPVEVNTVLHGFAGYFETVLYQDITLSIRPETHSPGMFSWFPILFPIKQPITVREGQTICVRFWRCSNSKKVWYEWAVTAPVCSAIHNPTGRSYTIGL
T1 sequence (Q9BQA1 whole entry partner): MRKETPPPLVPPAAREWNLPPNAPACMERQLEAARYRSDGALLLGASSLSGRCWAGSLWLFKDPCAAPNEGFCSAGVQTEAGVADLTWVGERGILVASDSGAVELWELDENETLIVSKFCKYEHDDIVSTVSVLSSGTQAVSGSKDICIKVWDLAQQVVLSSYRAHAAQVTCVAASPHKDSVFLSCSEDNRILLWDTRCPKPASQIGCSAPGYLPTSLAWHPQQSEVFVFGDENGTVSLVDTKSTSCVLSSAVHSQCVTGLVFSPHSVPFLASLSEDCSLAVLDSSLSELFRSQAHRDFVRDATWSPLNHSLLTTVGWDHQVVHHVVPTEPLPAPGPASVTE

Structure (SMILES)	IC50 [1]	SAM/MTA Ratio [1, 6]	IC50 [2]	IC50 [3]	IC50 [4]	MTAP Intact/Deleted Ratio [4]	IC50 ([5]; read-out: No Co-factor IC50)	SAM/MTA Ratio [1, 7]	IC50 [5]
O=C(NC[C@H](O)CN1CCc2cc(OCc3cnco3)ccc2C1)c1cc(NC2CCC2)nc(N2CCOCC2)c1 [Compound 292, (S)-2-(cyclobutylamino)-N-(2-hydroxy-3-(6-(oxazol-5-ylmethoxy)-3,4-dihydroisoquinolin-2(1H)-yl)propyl)-6-morpholinoisonicotinamide]	50 to 500 nM	A (a Ki ratio greater than or equal to 10 fold between the Ki in the presence of SAM and the Ki in the presence of MTA)	50 to 500 nM	≥ 10000 nM	1000 to 10000 nM	C* (an IC50 ratio of less than 3 fold between the IC50 in the HAP1 MTAP-intact cell line and the HAP1 MTAP-deleted cell line)	500 to 5000 nM		
CC(=O)N1CCC(Nc2cc(C(=O)NC[C@H](O)CN3CCc4cc(OCc5cn[nH]c5)ccc4C3)ncn2)CC1 [Compound 201, 6-[(1-acetyl-4-piperidyl)amino]-N-[(2S)-2-hydroxy-3-[6-(1H-pyrazol-4-ylmethoxy)-3,4-dihydro-1H-isoquinolin-2-yl]propyl]pyrimidine-4-carboxamide]	50 to 500 nM	A (a Ki ratio greater than or equal to 10 fold between the Ki in the presence of SAM and the Ki in the presence of MTA)	50 to 500 nM	1000 to 10000 nM	< 1000 nM	C* (an IC50 ratio of less than 3 fold between the IC50 in the HAP1 MTAP-intact cell line and the HAP1 MTAP-deleted cell line)	500 to 5000 nM		
O=C(NC[C@H](O)CN1CCc2cc(OCc3cnco3)ccc2C1)c1cc(NC2CCC2)ccn1 [Compound 509, (S)-4-(cyclobutylamino)-N-(2-hydroxy-3-(6-(oxazol-5-ylmethoxy)-3,4-dihydroisoquinolin-2(1H)-yl)propyl)picolinamide]	50 to 500 nM		500 to 5000 nM	1000 to 10000 nM	< 1000 nM	C* (an IC50 ratio of less than 3 fold between the IC50 in the HAP1 MTAP-intact cell line and the HAP1 MTAP-deleted cell line)		A (a Ki ratio greater than or equal to 10 fold between the Ki in the presence of SAM and the Ki in the presence of MTA)	500 to 5000 nM
O=C(NC[C@H](O)CN1CCc2cc(OCc3cnco3)ccc2C1)c1cncc(NC2CCOCC2)c1 [Compound 383]	500 to 5000 nM	A (a Ki ratio greater than or equal to 10 fold between the Ki in the presence of SAM and the Ki in the presence of MTA)	500 to 5000 nM	≥ 10000 nM	≥ 10000 nM	C* (an IC50 ratio of less than 3 fold between the IC50 in the HAP1 MTAP-intact cell line and the HAP1 MTAP-deleted cell line)	≥ 5000 nM		
Cc1c(OCc2cnco2)ccc2c1CCN(C[C@@H](O)CNC(=O)c1ccnc(NC3CCN(C(=O)CC(C)C)CC3)c1)C2 [Compound 447, (S)—N-(2-hydroxy-3-(5-methyl-6-(oxazol-5-ylmethoxy)-3N-dihydroisoquinolin-2(1H)-yl)propyl)-2-((1-(3-methylbutanoyl)piperidin-4-yl)amino)isonicotinamide]	50 to 500 nM		50 to 500 nM	≥ 10000 nM	< 1000 nM	A* (an IC50 ratio greater than or equal to 10 fold between the IC50 in the HAP1 MTAP-intact cell line and the HAP1 MTAP-deleted cell line)		A (a Ki ratio greater than or equal to 10 fold between the Ki in the presence of SAM and the Ki in the presence of MTA)	500 to 5000 nM
CC(=O)N1CCC(Nc2cccc(C(=O)NC[C@H](O)CN3CCc4cc(OCc5cnco5)ccc4C3)c2)CC1 [Compound 527]	50 to 500 nM		50 to 500 nM	≥ 10000 nM	1000 to 10000 nM	B* (an IC50 ratio greater than or equal to 3 fold but lower than 10 fold between the IC50 in the HAP1 MTAP-intact cell line and the HAP1 MTAP-deleted cell line)		A (a Ki ratio greater than or equal to 10 fold between the Ki in the presence of SAM and the Ki in the presence of MTA)	500 to 5000 nM
CC(=O)N1CCC(Nc2ccnc(C(=O)NC[C@H](O)CN3CCc4cc(OCc5cnco5)ccc4C3)c2)CC1 [Compound 507, (S)-4-((1-acetylpiperidin-4-yl)amino)-N-(2-hydroxy-3-(6-(oxazol-5-ylmethoxy)-3,4-dihydroisoquinolin-2(1H)-yl)propyl)picolinamide]	50 to 500 nM		50 to 500 nM	≥ 10000 nM	1000 to 10000 nM	B* (an IC50 ratio greater than or equal to 3 fold but lower than 10 fold between the IC50 in the HAP1 MTAP-intact cell line and the HAP1 MTAP-deleted cell line)		A (a Ki ratio greater than or equal to 10 fold between the Ki in the presence of SAM and the Ki in the presence of MTA)	500 to 5000 nM
Cc1c(OCc2cnco2)ccc2c1CCN(C[C@@H](O)CNC(=O)c1ccnc(NC3CN(C(=O)C(C)C)C3)c1)C2 [Compound 550]	50 to 500 nM		50 to 500 nM	≥ 10000 nM	≥ 10000 nM	C* (an IC50 ratio of less than 3 fold between the IC50 in the HAP1 MTAP-intact cell line and the HAP1 MTAP-deleted cell line)		A (a Ki ratio greater than or equal to 10 fold between the Ki in the presence of SAM and the Ki in the presence of MTA)	≥ 5000 nM
CC(C)(C)N1CCN(c2nc(NC3COC3)cc(C(=O)NC[C@H](O)CN3CCc4cc(OCc5cnco5)ccc4C3)n2)CC1 [Compound 373]	50 to 500 nM	A (a Ki ratio greater than or equal to 10 fold between the Ki in the presence of SAM and the Ki in the presence of MTA)	50 to 500 nM	≥ 10000 nM	1000 to 10000 nM	B* (an IC50 ratio greater than or equal to 3 fold but lower than 10 fold between the IC50 in the HAP1 MTAP-intact cell line and the HAP1 MTAP-deleted cell line)	500 to 5000 nM		
CS(=O)(=O)N1CCC(Nc2cc(C(=O)NC[C@H](O)CN3CCc4cc(OCc5cnco5)ccc4C3)ccn2)CC1 [Compound 430, N-[(2S)-2-hydroxy-3-[6-(oxazol-5-ylmethoxy)-3,4-dihydro-1H-isoquinolin-2-yl]propyl]-2-[(1-methylsulfonyl-4-piperidyl)amino]pyridine-4-carboxamide]	50 to 500 nM		50 to 500 nM	≥ 10000 nM	1000 to 10000 nM	C* (an IC50 ratio of less than 3 fold between the IC50 in the HAP1 MTAP-intact cell line and the HAP1 MTAP-deleted cell line)		A (a Ki ratio greater than or equal to 10 fold between the Ki in the presence of SAM and the Ki in the presence of MTA)	500 to 5000 nM
O=C(NC[C@H](O)CN1CCc2cc(OCc3cnco3)ccc2C1)c1cc(NC2COC2)nc(N2CCCCC2)n1 [Compound 325, (S)—N-(2-hydroxy-3-(6-(oxazol-5-ylmethoxy)-3,4-dihydroisoquinolin-2(1H)-yl)propyl)-6-(oxetan-3-ylamino)-2-(piperidin-1-yl)pyrimidine-4-carboxamide]	50 to 500 nM	A (a Ki ratio greater than or equal to 10 fold between the Ki in the presence of SAM and the Ki in the presence of MTA)	50 to 500 nM	1000 to 10000 nM	< 1000 nM	C* (an IC50 ratio of less than 3 fold between the IC50 in the HAP1 MTAP-intact cell line and the HAP1 MTAP-deleted cell line)	500 to 5000 nM		
Cc1ncoc1COc1ccc2c(c1C)CCN(C[C@@H](O)CNC(=O)c1cc(NC3COC3)nc(N3CCN(C(=O)C(C)C)CC3)n1)C2 [Compound 421, N-[(2S)-2-hydroxy-3-{5-methyl-6-[(4-methyl-1,3-oxazol-5-yl)methoxy]-1,2,3,4-tetrahydroisoquinolin-2-yl}propyl]-2-[4-(2-methylpropanoyl)piperazin-1-yl]-6-[(oxetan-3-yl)amino]pyrimidine-4-carboxamide]	50 to 500 nM	A (a Ki ratio greater than or equal to 10 fold between the Ki in the presence of SAM and the Ki in the presence of MTA)	50 to 500 nM	≥ 10000 nM	1000 to 10000 nM	B* (an IC50 ratio greater than or equal to 3 fold but lower than 10 fold between the IC50 in the HAP1 MTAP-intact cell line and the HAP1 MTAP-deleted cell line)	≥ 5000 nM		
CCN(C)c1cc(C(=O)NC[C@H](O)CN2CCc3c(ccc(OCc4cnco4)c3Cl)C2)cc(NC2CCC2)n1 [Compound 445, (S)—N-(3-(5-chloro-6-(oxazol-5-ylmethoxy)-3N-dihydroisoquinolin-2(1H)-yl)-2-hydroxypropyl)-2-(cyclobutylamino)-6-(ethyl(methyl)amino)isonicotinamide]	50 to 500 nM		500 to 5000 nM	≥ 10000 nM	≥ 10000 nM	C* (an IC50 ratio of less than 3 fold between the IC50 in the HAP1 MTAP-intact cell line and the HAP1 MTAP-deleted cell line)		A (a Ki ratio greater than or equal to 10 fold between the Ki in the presence of SAM and the Ki in the presence of MTA)	≥ 5000 nM
